In brackets after ≈: the same amount, converted by molar mass. Where two headings read alike, the source gives them in different places.
Columns and labels:
[1] = test system: PTH-induced resorption of bone in culture; conditions: cited from earlier work
carbonic anhydrase = assay: Carbonic anhydrase inhibition (modified micromethod, CO2/bicarbonate colour change time); format: biochemical; conditions: for carbonic anhydrase inhibition: before hydrolysis, final assay concentration 5×10^-6 M (FIG. 2); for Potency as CA inhibitor: relative to acetazolamide = 100, Table 5
Method: B--Carbonic Anhydrase Inhibition
A modification of the micromethod of Maven, J. Pharmacol. Exp. Ther. 130: 26-29 (1960) was used to assess carbonic anhydrase activity and inhibition. In essence, a bicarbonate solution was incubated at 0° C. in a vessel which was constantly bubbled with CO2. A pH indicator (phensulfophthalein) was included. The dependent variable was the amount of time required to achieve color change (addition of bicarbonate is defined as time zero). Addition of carbonic anhydase decreased reaction time. Further addition of enzyme inhibitors extended reaction time back to control values.
All are tested before and after being subjected to hydrolyric conditions with the final assay concentration being 5×10^-6 M. For these experiments, the dependent variable was the amount of time required for acidification of a CO2 /bicarbonate buffer system to a defined endpoint. […] Finally, test drugs were added to enzyme-containing reaction mixtures, and any increase in reaction time was indicative of enzyme inhibition.

[2] = test system: rat calvaria (PTH-stimulated calcium release); assay: In vitro bone organ culture, PTH-stimulated calcium release from calvaria; format: cell-based; conditions: for PTH-stimulated calcium release from calvaria: 10^-5 M (FIG. 3)
Method: Essentially, fetal or neonatal rat calvaria were excised and cultured in serum supplemented BGJb medium (GIBCO) containing HEPES buffer (hydroxyethylpiperazine-ethanesulfonate), penicillin and streptomycin. Bone samples were individually incubated in sterile multi-well plates at 37° C./100% relative humidity/95:5 air:CO2. If appropriate, bone may be radiolabeled by injection of mothers with ^45 CACl2 or pups with tritiated proline.
1. In vitro inhibition of bone resorption. Rat calvaria were cultured as described. Some cultures include the addition of parathyroid hormone (PTH) in the presence and absence of test compounds (10^-5 M).

[3] = Binding to hydroxyapatite; conditions: for bound to hydroxyapatite: 10^-5 M, 30 minute incubation (FIG. 1)
Method: A--Binding to Hydroxyapatite
For these studies, 10^-5 M aqueous solutions of the various test agents were added to a slurry of hydroxyapatite (HA), the principle mineral constituent of bone. After a 30 minute incubation, HA was separated by centrifugation and treated with 1.0M phosphate buffer (pH=7) or 2.0M phosphate buffer (pH=7). Percentage of total drug bound and eluted was determined using UV-visible spectrophotometry.
1. Binding to hydroxyapatite.

[4] = test system: PTH-induced bone resorption; assay: In vivo Induced Secondary Hyperparathyroid Rat (ISHR); conditions: for effect on developing hypercalcemia: given 24 hours prior to nephrectomy; for Blood Calcium: i.p. 24 h before nephrectomy, bled 4 h post nephrectomy, control 12.2 ± 0.4, prenephrectomy 10.1 ± 0.3, ** P ≤ 0.05, preliminary
Method: 1. The Induced Secondary Hyperparathyroid Rat
In order to test the biological activity of these substances, test compounds were injected intraperitoneally into 100 gram female rats. Twenty-four hours later the animals were subjected to bilateral nephrectomy. Animals were bled 4 hours post nephrectomy. […] The resulting decline in the concentration of ionized calcium in the blood served as a stimulus for the release of PTH. In animals with functional parathyroid glands, a secondary hyperparathyroidism developed with an ensuing hypercalcemia due to PTH-induced bone resorption. Agents which inhibited bone resorption attenuate this hypercalcemic response.

physchem = conditions: for chromatographic logP: reverse phase hplc lc-18-db, pH 2
Method: Chromatographic characterization was accomplished using hydroxyapetite (HA) chromatography, silica gel thin layer chromatography and high performance reverse phase liquid chromatography (HPLC) with the following characteristics:
Column: LC-18-DB (Supelco)/25 cm/5 um particles.
Mobile phase: 9% tetrahydrofuran/9% CH3 CN/1% CH3 OH/81% 5 mM sodium phosphate, pH=2
Detection: UV-visible absorbance 210-500 nm (photo-diode array scanning)
This mode of analysis served simultaneously as a qualitative analytic procedure (full UV-vis spectrum) as well as providing a quantitative estimate of drug concentration.
Chromatographic data was obtained using the HPLC system described.

[5] = cited from earlier work; for acidosis: systemic / metabolic acidosis
[6] = kidney intact animals; cited from earlier work
[7] = test system: response to PTH (plasma calcium); conditions: ISHR without parathyroids; cited from earlier work
[8] = test system: PTH-induced bone resorption; conditions: literature (Waite et al. 1970); cited from earlier work
Solubility pH 7.6 = format: physicochemical
[9] = pH 7.6
[10] = test system: PTH-stimulated calcium release from bone; assay: In vivo classical endocrine ablation/replacement model (PTH given to parathyroidectomized rats); parameters: species or system rat; conditions: PTH group
Method: Parathyroid hormone was administered to parathyroidectomized rats who received no food for 12 hours before PTH injection, to minimize gut calcium absorption. In an attempt to attenuate the developing increase in plasma calcium, drug was administered 24 hours prior to PTH injection.
Parathyroid hormone was administered to parathyroidectomized rats who had received no food for 12 hours before PTH injection, to minimize gut calcium absorption.

CN(C)C1C(=O)C(C(N)=O)=C(O)C2(O)C(=O)C3=C(O)c4c(O)cccc4C(C)(O)C3CC12 (stereo not shown) [tetracycline]
inhibition of PTH in vitro ([1]; at high concentrations): typically inhibits PTH in vitro
carbonic anhydrase inhibition (carbonic anhydrase): without effect
PTH-stimulated calcium release from calvaria [2]: without effect
bound to hydroxyapatite [3]: 90%
% Bound to Hydroxyapatite ([3]; Table 6): 85%
binding to / elution from hydroxyapatite ([3]; result in words, sodium phosphate buffer, pH 7): eluted with 1.0M sodium phosphate
effect on developing hypercalcemia [4]: does not appear to be effective
Blood Calcium [4]: 11.8 ± 0.4 mg/dL

CCOC(=O)CCCCC(=O)NS(=O)(=O)c1nnc(NC(C)=O)s1 [AAOEt, acetazolamide-adipate-ethyl ester]
lipophilicity relative to parent compounds (physchem; HPLC): more lipophilic than is its parent, acetazolamide
chromatographic logP (physchem): 0.238
carbonic anhydrase inhibition after hydrolytic conditions (carbonic anhydrase; following incubation under hydrolytic conditions, 5×10^-6 M (FIG. 2)): inhibited carbonic anhydrase activity
bound to hydroxyapatite [3]: 3%

CC(=O)Nc1nnc(S(N)(=O)=O)s1 [acetazolamide]
change in plasma calcium concentration ([5]; normal animals): no change in plasma calcium concentration is observed
acidosis [5]: causes a systemic acidosis
acidosis ([5]; listed as Acetazolamide): produces a metabolic acidosis
half-life [6]: approximately 50 minutes
inhibition of PTH-induced resorption ([1]; tissue culture (Minkin and Jennings)): inhibition of PTH-induced resorption
inhibition of response to administered PTH [7]: abolish it
carbonic anhydrase inhibition (carbonic anhydrase): inhibits carbonic anhydrase activity
Potency as CA inhibitor (carbonic anhydrase): 100%
PTH-stimulated calcium release from calvaria [2]: inhibited
bound to hydroxyapatite [3]: 19%
inhibition of the increase in total plasma calcium in ISHR [8]: completely inhibits this response
solubility (Solubility pH 7.6): 6.7 mM (≈ 1490 µg/mL)
Blood Calcium ([4]; 0.2 mol/kg as printed): 12.6 ± 0.2 mg/dL
effect on developing hypercalcemia [4]: not effective

Nc1nnc(S(N)(=O)=O)s1 [WP-061786, 2-amino-1,3,4-thiadiazole-5-sulfonamide]
ether:buffer partition coefficient [9]: 0.15
chromatographic logP (physchem): -0.409
Potency as CA inhibitor (carbonic anhydrase): 20%
% Bound to Hydroxyapatite [3]: 0%
solubility (Solubility pH 7.6): 28.4 mM (≈ 5120 µg/mL)

CN(C)C1C(=O)C(C(N)=O)=C(O)C2(O)C(=O)C3=C(O)c4c(OC(CO)COC(=O)Oc5ccc6nc(S(N)(=O)=O)sc6c5)cccc4C(C)(O)C3CC12 (stereo not shown) [TAE-2]
PTH-stimulated bone resorption / calcium release ([2]; calvaria in culture (FIGS. 8-10)): attenuates PTH stimulated calcium release from calvaria in culture (FIG. 9) in a concentration dependent fashion

NS(=O)(=O)c1nnc(NC(=O)CCC(=O)NCCCCCC(O)(P(=O)(O)O)P(=O)(O)O)s1 [PAA]
water solubility relative to parent thiadiazolesulfonamide (physchem): more water soluble than the parent thiadiazolesulfonamide
Ki (carbonic anhydrase; read-out: KI as carbonic anhydrase inhibitor): 120 nM

B1: PTH: parathyroid hormone (protein, UniProt P01270 32-115, looked up)
Parathyroid hormone: SVSEIQLMHNLGKHLNSMERVEWLRKKLQDVHNFVALGAPLAPRDAGSQRPRKKEDNVLVESHEKSLGEADKADVNVLTKAKSQ
modifications: Parathyroid hormone
Blood Calcium, Before PTH [10]: 5.2 ± 0.3 mg/dL
Blood Calcium, 6 hours post-treatment ([10]; control 5.5 ± 0.2, ** p < 0.05 vs control): 7.2 ± 0.2 mg/dL
net release of calcium from cultured bone ([2]; treatment with PTH): significant stimulation

— patent publication US5641762A, “Bone targeted inhibitors of carbonic anhydrase” (Research Corporation Technologies, Inc., priority 1994, dated 1997)
